PubChem BioAssay AID256 (DTP/NCI, 2004)
Values joined by “and” are separate entries in the source; they are usually repeats but may differ in a detail not shown here. Equal entries are not always repeated. Inconclusive results and toxic doses are left out. The calls were made as follows: active = survival T/C of 150% or more; inactive = T/C below 125% in these data. Residues, ends and D or L forms follow the SMILES beside them. *: point of attachment. Cbz = O=C(OCc1ccccc1)*

System: CD2F1 mice, L1210 leukemia ip, survival T/C
Assay: NCI In Vivo Anticancer Drug Screen. Data for tumor model L1210 Leukemia (intraperitoneal) in CD2F1 (CDF1) mice
Conditions: higher = longer survival
Method in brief: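 Vehicle-treated tumor-bearing mice served as controls (C) for compound-treated mice (T). Reported figure is T divided by C.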

[1] = endpoint: mean survival time, dose: 100.0 mg/kg/injection, schedule: Q04DX003 (ip), vehicle: Klucel (hydroxypropylcellulose) (HPC)
[2] = endpoint: mean survival time, dose: 200.0 mg/kg/injection, schedule: Q04DX003 (ip), vehicle: Klucel (hydroxypropylcellulose) (HPC)
[3] = endpoint: mean survival time, dose: 400.0 mg/kg/injection, schedule: Q04DX003 (ip), vehicle: Klucel (hydroxypropylcellulose) (HPC)
[4] = endpoint: mean survival time, dose: 100.0 mg/kg/injection, schedule: Q01DX009 (ip), vehicle: saline with Tween-80
[5] = endpoint: mean survival time, dose: 200.0 mg/kg/injection, schedule: Q01DX009 (ip), vehicle: saline with Tween-80
[6] = endpoint: mean survival time, dose: 400.0 mg/kg/injection, schedule: Q01DX009 (ip), vehicle: saline with Tween-80
[7] = endpoint: mean survival time, dose: 100.0 mg/kg/injection, schedule: Q04DX003 (ip), vehicle: saline with Tween-80
[8] = endpoint: mean survival time, dose: 200.0 mg/kg/injection, schedule: Q04DX003 (ip), vehicle: saline with Tween-80
[9] = endpoint: mean survival time, dose: 400.0 mg/kg/injection, schedule: Q04DX003 (ip), vehicle: saline with Tween-80
[10] = endpoint: mean survival time, dose: 25.0 mg/kg/injection, schedule: Q01DX009 (ip), vehicle: saline with Tween-80
[11] = endpoint: mean survival time, dose: 50.0 mg/kg/injection, schedule: Q01DX009 (ip), vehicle: saline with Tween-80

Measured: T/C

O=C1C(c2ccccc2)=S=C2Sc3ccccc3N12
inactive: [1] 102 % of control | [2] 103 % of control | [3] 96 % of control

O=[N+]([O-])c1ccc(S(=O)(=O)F)c(Cl)c1
inactive: [4] 100 % of control | endpoint: mean survival time, dose: 100.0 mg/kg/injection, schedule: Q04DX003 (ip), vehicle: saline 100 % of control | [5] 100 % of control | endpoint: mean survival time, dose: 200.0 mg/kg/injection, schedule: Q04DX003 (ip), vehicle: saline 101 % of control | [6] 100 % of control | endpoint: mean survival time, dose: 400.0 mg/kg/injection, schedule: Q04DX003 (ip), vehicle: saline 101 % of control

Cn1c2ccccc2c2ccc3c(c21)C(=O)C=CC3=O
inactive: endpoint: median survival time, dose: 12.5 mg/kg/injection, schedule: Q01DX009 (ip), vehicle: Klucel (hydroxypropylcellulose) (HPC) 100 % of control | endpoint: median survival time, dose: 25.0 mg/kg/injection, schedule: Q01DX009 (ip), vehicle: Klucel (hydroxypropylcellulose) (HPC) 102 % of control | endpoint: median survival time, dose: 50.0 mg/kg/injection, schedule: Q01DX009 (ip), vehicle: Klucel (hydroxypropylcellulose) (HPC) 109 % of control

C=CCCCCCCCCC(=O)NN1CCOCC1
inactive: [4] 94 % of control | [5] 91 % of control | [6] 94 % of control

COC1=C(Br)C(O)C2(C=C1Br)CC(C(=O)NCCCCNC(=O)C1=NOC3(C=C(Br)C(OC)=C(Br)C3O)C1)=NO2 (stereo not drawn)
inactive: endpoint: mean survival time, dose: 50.0 mg/kg/injection, schedule: Q04DX002 (ip), vehicle: saline with Tween-80 94 % of control | endpoint: mean survival time, dose: 100.0 mg/kg/injection, schedule: Q04DX002 (ip), vehicle: saline with Tween-80 94 % of control | endpoint: mean survival time, dose: 200.0 mg/kg/injection, schedule: Q04DX002 (ip), vehicle: saline with Tween-80 97 % of control | endpoint: mean survival time, dose: 400.0 mg/kg/injection, schedule: Q04DX002 (ip), vehicle: saline with Tween-80 86 % of control

O=c1[nH]cc(Cc2cccc3ccccc23)c(=O)[nH]1
inactive: endpoint: mean survival time, dose: 100.0 mg/kg/injection, schedule: Q01DX001 (ip), vehicle: saline with Tween-80 92 % of control | endpoint: mean survival time, dose: 200.0 mg/kg/injection, schedule: Q01DX001 (ip), vehicle: saline with Tween-80 94 % of control | endpoint: mean survival time, dose: 400.0 mg/kg/injection, schedule: Q01DX001 (ip), vehicle: saline with Tween-80 86 % of control

O=S(=O)(SC(S(=O)(=O)c1ccccc1)S(=O)(=O)c1ccccc1)c1ccccc1
inactive: endpoint: mean survival time, dose: 12.5 mg/kg/injection, schedule: Q01DX009 (ip), vehicle: Klucel (hydroxypropylcellulose) (HPC) 94 % of control and 105 % of control | endpoint: mean survival time, dose: 25.0 mg/kg/injection, schedule: Q01DX009 (ip), vehicle: Klucel (hydroxypropylcellulose) (HPC) 97 % of control and 110 % of control | endpoint: mean survival time, dose: 50.0 mg/kg/injection, schedule: Q01DX009 (ip), vehicle: Klucel (hydroxypropylcellulose) (HPC) 98 % of control and 102 % of control | endpoint: mean survival time, dose: 100.0 mg/kg/injection, schedule: Q01DX009 (ip), vehicle: Klucel (hydroxypropylcellulose) (HPC) 96 % of control | endpoint: mean survival time, dose: 200.0 mg/kg/injection, schedule: Q01DX009 (ip), vehicle: Klucel (hydroxypropylcellulose) (HPC) 92 % of control and 104 % of control | endpoint: mean survival time, dose: 400.0 mg/kg/injection, schedule: Q01DX009 (ip), vehicle: Klucel (hydroxypropylcellulose) (HPC) 113 % of control and 94 % of control | endpoint: median survival time, dose: 100.0 mg/kg/injection, schedule: Q01DX009 (ip), vehicle: Klucel (hydroxypropylcellulose) (HPC) 103 % of control | endpoint: median survival time, dose: 200.0 mg/kg/injection, schedule: Q01DX009 (ip), vehicle: Klucel (hydroxypropylcellulose) (HPC) 102 % of control | endpoint: median survival time, dose: 400.0 mg/kg/injection, schedule: Q01DX009 (ip), vehicle: Klucel (hydroxypropylcellulose) (HPC) 102 % of control | endpoint: median survival time, dose: 800.0 mg/kg/injection, schedule: Q01DX009 (ip), vehicle: Klucel (hydroxypropylcellulose) (HPC) 92 % of control

O=C1CCC(=O)N1CCC1=NCCc2ccccc21
inactive: [7] 100 % of control | [8] 96 % of control | [9] 100 % of control

CC(C)C(NC(=O)OC(C)(C)C)C(=O)ON1C(=O)CCC1=O (stereo not drawn)
inactive: [7] 104 % of control | [8] 100 % of control

CCOC(=O)C1C(=O)N(c2ccccc2)C(=O)N1Cc1ccccc1 (stereo not drawn)
inactive: endpoint: mean survival time, dose: 12.5 mg/kg/injection, schedule: Q01DX009 (ip), vehicle: other 98 % of control | endpoint: mean survival time, dose: 25.0 mg/kg/injection, schedule: Q01DX009 (ip), vehicle: other 98 % of control | endpoint: mean survival time, dose: 50.0 mg/kg/injection, schedule: Q01DX009 (ip), vehicle: other 97 % of control | endpoint: mean survival time, dose: 100.0 mg/kg/injection, schedule: Q01DX009 (ip), vehicle: other 95 % of control | endpoint: mean survival time, dose: 200.0 mg/kg/injection, schedule: Q01DX009 (ip), vehicle: other 86 % of control

c1ccc2c(c1)[nH]c1ccncc12
inactive: [10] 98 % of control | [11] 90 % of control | [4] 87 % of control

O=[N+]([O-])c1ccc(N=C(Cl)c2ccccc2)cc1
inactive: [4] 101 % of control | [5] 104 % of control | [6] 104 % of control

CC(C)CCCC(C)C1CCC2C3CC4OC45CC(O)CCC5(C)C3CCC12C (stereo not drawn)
inactive: [7] 96 % of control | [8] 90 % of control | [9] 96 % of control

CNC(=O)Oc1coc(CCl)cc1=O
inactive: [10] 98 % of control | [11] 107 % of control | endpoint: mean survival time, dose: 50.0 mg/kg/injection, schedule: Q04DX003 (ip), vehicle: saline with Tween-80 97 % of control | [4] 101 % of control | [7] 101 % of control

CC(=O)OC1CCC2C3CCC4=C(Cl)C(=O)CCC4C3CCC12C (stereo not drawn)
inactive: endpoint: mean survival time, dose: 100.0 mg/kg/injection, schedule: Q04DX003 (sc), vehicle: steriod suspending solution 98 % of control | endpoint: mean survival time, dose: 200.0 mg/kg/injection, schedule: Q04DX003 (sc), vehicle: steriod suspending solution 97 % of control | endpoint: mean survival time, dose: 400.0 mg/kg/injection, schedule: Q04DX003 (sc), vehicle: steriod suspending solution 106 % of control

Brc1cscc1-c1ccccc1
inactive: [7] 93 % of control | [8] 102 % of control | [9] 98 % of control

NC(=O)CNC(=O)CNC(=O)CNC(=O)OCc1ccccc1 (Cbz-Gly-Gly-Gly-NH2)
inactive: endpoint: mean survival time, dose: 12.5 mg/kg/injection, schedule: Q01DX009 (ip), vehicle: saline with Tween-80 105 % of control | [10] 102 % of control | [11] 95 % of control

CCOC(=O)c1cnc2c(cnn2CC)c1OCc1ccccc1
inactive: [1] 101 % of control | [2] 104 % of control | [3] 108 % of control
